Counter-ions that a name gives are not always drawn. Like-named read-outs stand apart in the source and are kept apart here.
Assays:
[1] = Hydrolytic stability of copanlisib in aqueous solutions (HPLC); assay type: physicochemical; details: water, buffer pH 7, 0.1 M hydrochloric acid and 0.1 M sodium hydroxide solution
Protocol: The stationary phase is an XBridge Shield HPLC column (150 mm×3.0 mm, 3.5 μm particle size). For peak separation, gradient elution with a flow rate of 0.5 mL/min is chosen using a sodium dodecyl sulfate ion pair eluent (in water with phosphoric acid) as mobile phase A, and a sodium dodecyl sulfate ion pair eluent (in acetonitrile with 20% water and phosphoric acid) as mobile phase B. The applied gradient profile contains four steps running from 40% to 50% mobile phase B within 5 min, from 50% to 65% mobile phase B within 25 min and from 65% to 100% mobile phase B within another 5 min, followed by a 10 min isocratic phase at 100% mobile phase B. The column temperature is kept at 25° C. and the injection volume is 3.0 μL. […] (flow rate of 0.5 ml/min). […] The impurity was assayed at a wavelength of 210 nm and taken into account to determine the degradation products. The different aqueous solutions (0.05% copanlisib; after addition of 50% 2-propanol, [buffer solution filtered with 0.5 μm membrane filter]) were stored at 25° C. and 70° C. for 24 h and one week. An analytical HPLC-method has been developed to determine assay and organic impurities of copanlisib as well as degradation products.

[2] = tested on: relapsed or refractory indolent B-cell lymphoma; assay: Copanlisib in patients with relapsed or refractory indolent B-cell lymphoma: tumor response; assay type: in vivo, human
Protocol: (§1) Methods: Patients with indolent B-cell non-Hodgkin lymphoma (4 subtypes: follicular (FL), marginal zone (MZL), small lymphocytic (SLL) and lymphoplasmacytoid/Waldenström macroglobulinemia (LPL-WM)) and relapsed after, or refractory to, ≥2 prior lines of treatment were eligible. […] Copanlisib (60 mg, I.V.) was intermittently administered on days 1, 8 and 15 of a 28-day cycle. The primary efficacy endpoint was objective tumor response rate (ORR) as assessed per independent radiologic review (Cheson et al., JCO 20:579, 2007).

[3] = Copanlisib in patients with relapsed or refractory indolent B-cell lymphoma: adverse events; assay type: in vivo, human
Protocol: as §1

[4] = full analysis set, 60 mg I.V. on days 1, 8 and 15 of a 28-day cycle

Q: With COc1c(OCCCN2CCOCC2)ccc2c1N=C(NC(=O)c1cnc(N)nc1)N1CCN=C21 [copanlisib, 2-amino-N-[7-methoxy-8-(3-morpholin-4-ylpropoxy)-2,3-dihydroimidazo[1,2-c]quinazolin-5-yl]pyrimidine-5-carboxamide] as the compound, how does the “Hydrolytic stability in words” value [1] read?
A: The value was “hydrolytic instability”.

Q: What about the Median overall survival ([2]; at the time of primary analysis) of the same compound?
A: Its Median overall survival is “had not yet been reached”.

Q: And the “KM-estimate of median PFS” value ([2]; full analysis set (range 0-736))?
A: Its value is 340 days.

Q: What about the “overall response rate (ORR)” value [2, 4] of the same compound?
A: The value was 59.2%.

Q: And the “partial response (PR)” value [2, 4]?
A: The value was 47.2%.

Q: What about the progressive disease [2, 4] of the same compound?
A: The progressive disease was 2.1 % of patients.

Q: And the stable disease [2, 4]?
A: The stable disease was 29.6 % of patients.

Q: What about the “AE of interest: colitis” value ([3]; all grade) of the same compound?
A: Its value is 0.7%.

Q: And the “AE of interest: diarrhea” value ([3]; all grade)?
A: Its value is 18%.

Q: And the “AE of interest: lung infection” value ([3]; all grade)?
A: The value was 14%.

Q: What about the “AE of interest: neutropenia” value ([3]; all grade) of the same compound?
A: The value was 25%.

Q: And the “AE of interest: pneumonitis” value ([3]; all grade)?
A: Its value is 7%.

Q: What about the “treatment-related AE: hypertension” value ([3]; all grade) of the same compound?
A: Its value is 29%.

Q: And the “treatment-related AE: transient hyperglycemia” value ([3]; all grade)?
A: Its value is 49%.

Q: And the “Laboratory toxicity: alanine aminotransferase” value ([3]; all-grade)?
A: The value was 23%.

Q: What about the “Laboratory toxicity: aspartate aminotransferase” value ([3]; all-grade) of the same compound?
A: The value was 28%.

Q: What about the colonic perforations ([3]; full analysis set) of the same compound?
A: The colonic perforations was “No colonic perforations occurred”.

Q: And the “deaths (number)” value ([3]; full analysis set)?
A: The value was 6.

Q: And the “non-fatal opportunistic infections (number)” value ([3]; full analysis set)?
A: Its value is “two”.

Q: And the “AE of interest: colitis” value ([3]; grade 3+)?
A: The value was 0.7%.

Q: What about the “AE of interest: diarrhea” value ([3]; grade 3+) of the same compound?
A: Its value is 4%.

Q: And the “AE of interest: lung infection” value ([3]; grade 3+)?
A: The value was 11%.

Q: What about the “AE of interest: neutropenia” value ([3]; grade 3+) of the same compound?
A: The value was 19%.

Q: What about the “AE of interest: pneumonitis” value ([3]; grade 3+) of the same compound?
A: Its value is 1.4%.

Q: What about the “treatment-related AE: hypertension” value ([3]; grade 3+) of the same compound?
A: Its value is 23%.

Q: And the “treatment-related AE: transient hyperglycemia” value ([3]; grade 3+)?
A: The value was 40%.

Q: What about the “Laboratory toxicity: alanine aminotransferase” value ([3]; grade-1) of the same compound?
A: Its value is 19%.

Q: What about the “Laboratory toxicity: aspartate aminotransferase” value ([3]; grade-1) of the same compound?
A: Its value is 25%.

Q: What about the “deaths attributed to copanlisib (number)” value ([3]; lung infection, respiratory failure, and a thromboembolic event) of the same compound?
A: The value was 3.

Q: For COc1c(OCCCN2CCOCC2)ccc2c1N=C(NC(=O)c1cnc(N)nc1)N1CCN=C21 [copanlisib dihydrochloride, 2-amino-N-[7-methoxy-8-(3-morpholin-4-ylpropoxy)-2,3-dihydroimidazo[1,2-c]quinazolin-5-yl]pyrimidine-5-carboxamide dihydrochloride], which “Descriptive term (according to Ph. Eur./USP)” value (“Descriptive term” below) (0.1M Hydrochloric acid, 25° C.) is on record?
A: Its value is “freely soluble”.

Q: What about the “Descriptive term” value (Buffer (citrate) pH 3, 25° C.) of the same compound?
A: Its value is “freely soluble”.

Q: And the “Descriptive term” value (Buffer (citrate) pH 4, 25° C.)?
A: Its value is “soluble”.

Q: And the “Descriptive term” value (Buffer (citrate) pH 5, 25° C.)?
A: The value was “very slightly soluble”.

Q: What about the “Descriptive term” value (Buffer (phosphate) pH 1, 25° C.) of the same compound?
A: The value was “freely soluble”.

Q: What about the “Descriptive term” value (Buffer (phosphate) pH 2, 25° C.) of the same compound?
A: Its value is “freely soluble”.

Q: What about the “Descriptive term” value (Buffer (phosphate) pH 6, 25° C.) of the same compound?
A: The value was “practically insoluble”.

Q: What about the “Descriptive term” value (Buffer (phosphate) pH 7, 25° C.) of the same compound?
A: The value was “practically insoluble”.

Q: What about the “Descriptive term” value (Water, 25° C.) of the same compound?
A: The value was “freely soluble”.

Source: patent US20200281932A1, “FORMULATIONS OF COPANLISIB” (Bayer Pharma Aktiengesellschaft, priority 2017, published 2020)
